Measurements: PMC11775380, “Discovery of Novel Nav1.7-Selective Inhibitors with the 1H-Indole-3-Propionamide Scaffold for Effective Pain Relief” (Research, 2025)

Columns and labels:
Type in all cases: cell-based
human Nav1.7 (hNav1.7) = target: T1, human Nav1.7 (hNav1.7) (Homo sapiens, UniProt Q15858); assay: Whole-cell patch-clamp inhibition of Nav1.7 currents in transfected HEK293T cells
T1 construct: expressed in transfected cells; host or cells: HEK293T
Method in brief: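 hNav1.7 co-expressed with eGFP-tagged β1 and β2 subunits in HEK293T, recorded by manual whole-cell voltage clamp at 25 ± 2 °C with CsF-based pipette and NaCl external solutions, pH 7.4. IC50 from holding at −80 mV then stepping to inactivation V1/2 for 8 s to promote compound binding.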

[1] = test system: native Na+ current (Nav channels) in DRG neurons; assay: Voltage-clamp recording of native Na+ current in DRG neurons; details: 10 μM; mouse DRG neurons
Protocol: (§1) To investigate the mechanism of action of WN2-R and facilitate animal model experiments, we used voltage-clamp recording to test the effects of WN2-R on the native Na^+-, K^+-, and Ca^2+-mediated currents in DRG neurons. […] Furthermore, the effects of WN2-R on membrane excitability were examined in small (<30 μm) DRG neurons from mice using current-clamp recordings.
(§2) DRG isolation and culture were performed according to our previous report. Briefly, C57BL/6 mice (weight 18 to 20 g, 6 to 8 weeks) were euthanized via cervical dislocation under anesthesia. Lumbar DRGs were isolated from the L4 to L5 segments of the lumbar spinal cord. The DRG neurons were subsequently dissociated through enzymatic digestion with collagenase (0.32 mg/ml) and trypsin (0.15 mg/ml) at 37 °C for 30 min, with intermittent shaking. After centrifugation at 800 rpm for 5 min at room temperature, the cells were seeded onto poly-L-lysine-coated coverslips and cultured in DMEM (Gibco) supplemented with 10% fetal bovine serum (Gibco). […]
(§3) For recording Nav currents of DRG neurons, the bath solution contains (in mM) 30 NaCl, 1 MgCl2, 1.8 CaCl2, 5 CsCl, 5 KCl, 25 D-glucose, 5 HEPES, 0.1 CdCl2, and TEA-Cl (pH 7.4 with NaOH), and the pipette solution contains (in mM) 135 CsCl, 10 NaCl, and 5 HEPES (pH 7.4 with CsOH). The Nav current program is recorded following the above method. […]

[2] = test system: native K+ current (Kv channels) in DRG neurons; assay: Voltage-clamp recording of native K+ current in DRG neurons; details: 10 μM; mouse DRG neurons
Protocol: as §1, §2, §3

hNav1.3 = target: T2, hNav1.3 (Homo sapiens, UniProt Q9NY46); assay: Subtype selectivity, patch clamp; details: 1 μM
T2 construct: expressed in transfected cells; host or cells: HEK293T
Protocol: (§4) VGSC inhibitors required credible subtype selectivity to void side effects caused by binding to nontarget subtypes. At a concentration of 1 μM, the inhibitory rates of WN2-R on hNav1.2, hNav1.3, hNav1.4, hNav1.5, mNav1.6, and hNav1.8 were determined (n = 3 to 6, Fig. 7A). […] To further evaluate the drug safety profile, high-dose acute toxicity experiments were conducted. Mice were administered a high dose of 30 mg/kg WN2-R through i.p. administration. The rotarod test, forced-swim test, and open field test were used to explore the effect of high-dose WN2-R on the motor ability of mice (n = 4). The rotarod test evaluated the drug's effect on motor coordination, the forced-swim test examined its impact on the overall motor system, and the open field test assessed the drug's influence on the motor and nervous systems.
Human embryonic kidney (HEK) 293T (ATCC CRL-3216) and ND7/23 cells (National Collection of Authenticated Cell Cultures SCSP-5026) were cultured under standard conditions (5% CO2, 37 °C) in Dulbecco’s modified Eagle’s medium (DMEM) containing 10% fetal bovine serum and 1% penicillin-streptomycin solution(all from Gibco, Thermo Fisher Scientific, Waltham, MA, USA). When the cells reached 70% to 90% confluence, human Nav1.2 (hNav1.2), human Nav1.3 (hNav1.3), human Nav1.4 (hNav1.4), human Nav1.5 (hNav1.5), and mouse Nav1.6 (mNav1.6) channel plasmids were cotransfected with enhanced green fluorescent protein (eGFP) into HEK293T cells. Additionally, plasmids expressing β1 and β2 subunits tagged with eGFP were cotransfected with the human Nav1.7 (hNav1.7) channel into HEK293T cells. Human Nav1.8 (hNav1.8) was transiently transfected into ND7/23 cells, along with eGFP, using Lipofectamine 2000 (Invitrogen), adhering strictly to the manufacturer’s protocol. For manual patch-clamp experiments, the cells were plated onto glass coverslips and used within 20 to 48 h of transfection.
Whole-cell patch-clamp recordings were conducted at 25 ± 2 °C, utilizing an EPC 10USB patch-clamp amplifier (HEKA Elektronik, Lambrecht, Germany). Pipettes, with access resistance between 2.0 and 3.0 MΩ, were pulled from borosilicate glass capillary tubes using a 2-step vertical microelectrode puller (PC-10, Narishige Group, Tokyo, Japan). Voltage-clamp recordings were obtained with PatchMaster software v2 × 73 (HEKA Elektronik) 5 min after establishing whole-cell configuration, sampled at 20 kHz, and filtered at 5 kHz. To minimize voltage errors, 80% series resistance compensation was applied. Pipettes were filled with 140 mM CsF, 10 mM NaCl, 1 mM EGTA, and 10 mM HEPES (pH=7.4, adjusted with CsOH). The external solution contained 140 mM NaCl, 2 mM CaCl2, 1 mM MgCl2, 5 mM KCl, 10 mM HEPES, and 10 mM glucose (pH=7.4, adjusted with NaOH). IC50 values were determined in HEK293T or ND7/23 cell lines by voltage clamping at −80 mV, followed by stepping to the V1/2 of inactivation for 8 s to facilitate compound binding.

hNav1.8 = target: T3, hNav1.8 (Homo sapiens, UniProt Q9Y5Y9); assay: Subtype selectivity, patch clamp (ND7/23 cells); details: 1 μM
T3 construct: expressed in transfected cells; host or cells: ND7/23
Protocol: as §4, with “systems. […]” for “systems.”
Whole-cell patch-clamp recordings were conducted at 25 ± 2 °C, utilizing an EPC 10USB patch-clamp amplifier (HEKA Elektronik, Lambrecht, Germany). […] IC50 values were determined in HEK293T or ND7/23 cell lines by voltage clamping at −80 mV, followed by stepping to the V1/2 of inactivation for 8 s to facilitate compound binding.

T1 sequence (Q15858 whole entry): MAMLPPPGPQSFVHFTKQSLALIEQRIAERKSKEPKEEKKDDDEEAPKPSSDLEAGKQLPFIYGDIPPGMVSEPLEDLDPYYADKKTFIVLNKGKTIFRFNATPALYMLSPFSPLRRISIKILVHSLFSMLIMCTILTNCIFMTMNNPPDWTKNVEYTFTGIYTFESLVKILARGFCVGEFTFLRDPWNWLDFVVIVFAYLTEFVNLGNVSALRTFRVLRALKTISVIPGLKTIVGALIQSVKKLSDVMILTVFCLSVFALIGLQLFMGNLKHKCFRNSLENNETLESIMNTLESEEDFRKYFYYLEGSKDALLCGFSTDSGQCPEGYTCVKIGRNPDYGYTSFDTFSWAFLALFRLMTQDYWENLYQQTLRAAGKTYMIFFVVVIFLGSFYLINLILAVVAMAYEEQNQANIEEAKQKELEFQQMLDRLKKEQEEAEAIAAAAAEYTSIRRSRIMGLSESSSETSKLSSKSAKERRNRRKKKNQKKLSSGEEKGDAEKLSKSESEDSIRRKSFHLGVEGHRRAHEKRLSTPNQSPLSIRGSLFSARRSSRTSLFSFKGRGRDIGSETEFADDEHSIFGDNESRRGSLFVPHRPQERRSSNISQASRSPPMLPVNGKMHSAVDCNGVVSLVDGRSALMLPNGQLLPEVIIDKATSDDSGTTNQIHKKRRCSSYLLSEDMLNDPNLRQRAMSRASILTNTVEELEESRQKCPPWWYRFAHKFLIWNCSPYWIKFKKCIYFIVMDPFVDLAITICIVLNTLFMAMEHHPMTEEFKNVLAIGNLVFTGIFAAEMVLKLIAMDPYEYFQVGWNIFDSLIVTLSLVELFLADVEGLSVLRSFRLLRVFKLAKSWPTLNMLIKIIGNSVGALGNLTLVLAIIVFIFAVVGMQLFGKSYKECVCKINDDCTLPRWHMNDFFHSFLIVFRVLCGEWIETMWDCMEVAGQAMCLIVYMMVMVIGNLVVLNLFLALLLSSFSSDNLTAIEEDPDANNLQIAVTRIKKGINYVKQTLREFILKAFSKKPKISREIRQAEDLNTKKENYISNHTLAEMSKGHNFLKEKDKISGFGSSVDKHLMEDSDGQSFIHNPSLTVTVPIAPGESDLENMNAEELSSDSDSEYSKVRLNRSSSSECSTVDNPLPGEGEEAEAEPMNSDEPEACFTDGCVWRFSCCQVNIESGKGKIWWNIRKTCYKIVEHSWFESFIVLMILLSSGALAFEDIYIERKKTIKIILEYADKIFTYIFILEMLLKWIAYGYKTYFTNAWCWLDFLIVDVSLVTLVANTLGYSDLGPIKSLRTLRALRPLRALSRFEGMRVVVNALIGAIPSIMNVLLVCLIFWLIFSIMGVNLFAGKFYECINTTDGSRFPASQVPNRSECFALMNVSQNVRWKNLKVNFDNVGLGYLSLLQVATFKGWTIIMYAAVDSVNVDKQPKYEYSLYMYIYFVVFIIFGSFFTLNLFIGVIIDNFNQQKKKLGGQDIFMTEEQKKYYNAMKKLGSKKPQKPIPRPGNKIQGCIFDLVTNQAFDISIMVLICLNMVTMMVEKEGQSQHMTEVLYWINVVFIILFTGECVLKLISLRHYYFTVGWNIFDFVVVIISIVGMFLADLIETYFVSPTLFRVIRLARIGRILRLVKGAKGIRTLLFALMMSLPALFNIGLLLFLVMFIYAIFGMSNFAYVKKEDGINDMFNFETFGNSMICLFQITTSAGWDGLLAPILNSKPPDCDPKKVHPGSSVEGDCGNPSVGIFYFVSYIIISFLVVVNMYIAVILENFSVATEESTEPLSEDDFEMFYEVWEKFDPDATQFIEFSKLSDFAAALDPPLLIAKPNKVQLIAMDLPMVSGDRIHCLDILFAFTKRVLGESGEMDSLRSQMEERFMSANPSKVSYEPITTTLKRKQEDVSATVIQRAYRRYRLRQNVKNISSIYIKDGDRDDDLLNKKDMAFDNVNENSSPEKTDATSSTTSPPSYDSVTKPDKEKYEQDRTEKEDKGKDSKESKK
T1 sequence (Q07699 19-218 partner): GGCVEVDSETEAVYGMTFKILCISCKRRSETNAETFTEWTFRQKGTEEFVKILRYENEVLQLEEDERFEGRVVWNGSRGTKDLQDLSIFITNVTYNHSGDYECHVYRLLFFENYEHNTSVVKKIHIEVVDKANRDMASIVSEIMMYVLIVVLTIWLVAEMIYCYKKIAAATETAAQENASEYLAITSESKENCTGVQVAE
T1 sequence (O60939 30-215 partner): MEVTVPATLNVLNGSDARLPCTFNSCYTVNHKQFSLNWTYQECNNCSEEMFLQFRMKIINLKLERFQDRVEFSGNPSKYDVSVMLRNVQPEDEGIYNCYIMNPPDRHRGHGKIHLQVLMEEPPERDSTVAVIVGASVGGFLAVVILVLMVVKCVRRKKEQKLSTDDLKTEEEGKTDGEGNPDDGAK
T2 sequence (Q9NY46 whole entry): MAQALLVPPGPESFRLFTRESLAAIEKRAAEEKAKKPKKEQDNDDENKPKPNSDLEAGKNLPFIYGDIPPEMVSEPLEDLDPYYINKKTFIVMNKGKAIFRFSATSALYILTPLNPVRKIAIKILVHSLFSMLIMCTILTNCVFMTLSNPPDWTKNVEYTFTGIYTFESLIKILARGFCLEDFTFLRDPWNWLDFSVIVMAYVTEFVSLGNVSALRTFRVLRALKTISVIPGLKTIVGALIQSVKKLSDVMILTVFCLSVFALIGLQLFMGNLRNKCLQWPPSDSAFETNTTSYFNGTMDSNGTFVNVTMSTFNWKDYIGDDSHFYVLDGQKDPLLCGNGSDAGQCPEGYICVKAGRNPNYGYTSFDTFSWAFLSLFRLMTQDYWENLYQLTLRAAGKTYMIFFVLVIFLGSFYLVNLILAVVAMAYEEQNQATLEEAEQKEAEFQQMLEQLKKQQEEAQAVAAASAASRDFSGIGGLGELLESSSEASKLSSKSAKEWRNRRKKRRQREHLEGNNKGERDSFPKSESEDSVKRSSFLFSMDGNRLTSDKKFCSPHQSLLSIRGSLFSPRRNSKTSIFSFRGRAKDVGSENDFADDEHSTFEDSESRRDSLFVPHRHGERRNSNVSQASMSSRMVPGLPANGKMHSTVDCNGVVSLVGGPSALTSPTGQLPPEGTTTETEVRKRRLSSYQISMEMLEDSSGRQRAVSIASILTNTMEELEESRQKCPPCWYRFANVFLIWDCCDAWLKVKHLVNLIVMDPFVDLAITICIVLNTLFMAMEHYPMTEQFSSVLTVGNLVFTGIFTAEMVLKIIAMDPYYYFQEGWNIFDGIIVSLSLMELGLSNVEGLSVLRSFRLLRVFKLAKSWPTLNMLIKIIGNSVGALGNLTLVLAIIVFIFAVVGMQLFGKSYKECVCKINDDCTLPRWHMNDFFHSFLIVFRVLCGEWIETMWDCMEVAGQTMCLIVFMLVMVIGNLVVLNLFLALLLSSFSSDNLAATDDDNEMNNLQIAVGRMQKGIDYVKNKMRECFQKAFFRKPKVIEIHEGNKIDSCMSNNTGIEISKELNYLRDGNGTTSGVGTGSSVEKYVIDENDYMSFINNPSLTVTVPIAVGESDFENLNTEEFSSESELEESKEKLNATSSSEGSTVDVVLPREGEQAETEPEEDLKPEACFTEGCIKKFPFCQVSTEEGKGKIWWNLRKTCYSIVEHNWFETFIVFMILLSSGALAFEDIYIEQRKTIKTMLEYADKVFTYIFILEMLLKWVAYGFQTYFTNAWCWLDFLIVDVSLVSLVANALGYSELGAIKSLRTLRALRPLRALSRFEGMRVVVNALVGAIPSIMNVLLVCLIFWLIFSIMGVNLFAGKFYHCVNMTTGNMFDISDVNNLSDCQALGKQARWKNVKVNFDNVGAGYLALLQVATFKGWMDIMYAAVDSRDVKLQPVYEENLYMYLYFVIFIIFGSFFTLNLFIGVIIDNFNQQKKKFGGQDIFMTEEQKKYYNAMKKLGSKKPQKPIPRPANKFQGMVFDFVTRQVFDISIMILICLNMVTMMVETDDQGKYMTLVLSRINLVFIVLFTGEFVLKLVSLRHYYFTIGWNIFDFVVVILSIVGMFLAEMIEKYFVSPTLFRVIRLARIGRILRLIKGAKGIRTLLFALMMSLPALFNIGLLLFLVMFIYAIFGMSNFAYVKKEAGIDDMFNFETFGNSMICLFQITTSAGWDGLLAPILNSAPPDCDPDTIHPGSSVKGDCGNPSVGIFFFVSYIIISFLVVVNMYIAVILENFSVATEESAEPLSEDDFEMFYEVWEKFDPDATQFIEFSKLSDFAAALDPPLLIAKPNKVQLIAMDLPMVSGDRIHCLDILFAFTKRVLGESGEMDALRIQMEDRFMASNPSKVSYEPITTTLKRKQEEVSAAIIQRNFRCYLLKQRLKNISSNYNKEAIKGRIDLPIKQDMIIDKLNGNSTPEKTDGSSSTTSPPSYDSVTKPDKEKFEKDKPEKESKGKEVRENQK

Cc1ccc(Cn2cc([C@H](CC(=O)NCCN(C)C)c3ccc(F)cc3)c3ccccc32)cc1 [WN2-R]
Activity of P1 relative to P2 (human Nav1.7 (hNav1.7); ratio of Nav1.7 IC50 values of the enantiomers): 4.57 times | IC50 (human Nav1.7 (hNav1.7); −80 mV holding, step to V1/2 of inactivation for 8 s, HEK293T): 24.7 ± 9.4 nM | Effect on native Na+ current [1]: completely inhibited | Effect on native K+ current [2]: almost no effect | Inhibitory rate on hNav1.3 (hNav1.3): much lower than that on Nav1.7 | Inhibitory rate on hNav1.8 (hNav1.8): much lower than that on Nav1.7
